Assay results as given in ChEMBL document CHEMBL1201862, “PubChem BioAssay data set” (2004).
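Interpolation was linear, between the two tested concentrations surrounding the appropriate level; five concentrations were tested over 48 hours in 96-well plates. Abbreviation: GI50, concentration required for 50% inhibition of growth.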 Activity calls are given as the source filed them. No stated cut-off is given here; in the data, active = GI50 up to about 1.1 µM and inactive = higher.

Assays:
Test in all cases: growth of human tumour cells (NCI), 48 h
[1] = system: SNB-19
[2] = system: SN12C
[3] = system: UACC-257
[4] = system: NCI-H226
[5] = system: KM12
[6] = system: SF-268
[7] = system: EKVX
[8] = system: HCT-116
[9] = system: OVCAR-3
[10] = system: HCC 2998
[11] = system: NCI/ADR-RES
[12] = system: Hs-578T
[13] = system: A549
[14] = system: NCI-H23
[15] = system: MOLT-4
[16] = system: UO-31
[17] = system: UACC-62
[18] = system: U-251
[19] = system: HCT-15
[20] = system: SK-MEL-2

SMILES	GI50 [1]	GI50 [2]	GI50 [3]	GI50 [4]	GI50 [5]	GI50 [6]	GI50 [7]	GI50 [8]	GI50 [9]	GI50 [10]	GI50 [11]	GI50 [12]	GI50 [13]	GI50 [14]	GI50 [15]	GI50 [16]	GI50 [17]	GI50 [18]	GI50 [19] [µM]	GI50 [20]
COC1/C=C/C(C)C(O)CC(O)/C=C/C(C)C(C(C)C(OC)C(C)CCC(=O)C(C)C(C/C=C/N(C)C=O)OC)OC(=O)/C=C/C=C(\C)CC(OC)CC2=CC(=O)O[C@@H](C(C)C(OC)C1)[C@H]2O (some centres undefined)	0.0168 µM (active)	< 0.005 µM (active)	0.0103 µM (active)	< 0.005 µM (active)	< 0.005 µM (active)	0.0233 µM (active)	0.0298 µM (active)	< 0.005 µM (active)	< 0.005 µM (active)	< 0.005 µM (active)	0.00656 µM (active)	0.00879 µM (active)	0.00507 µM (active)	0.011 µM (active)	0.0163 µM (active)	0.00769 µM (active)	0.00665 µM (active)	< 0.005 µM (active)	< 0.005	–
O=c1[nH]c(=O)n([C@@H]2O[C@H](CO)[C@@H](O)[C@@H]2F)cc1I [FIALURIDINE]	> 100 µM (inactive)	> 100 µM (inactive)	> 100 µM (inactive)	> 100 µM (inactive)	> 100 µM (inactive)	> 100 µM (inactive)	> 100 µM (inactive)	> 100 µM (inactive)	> 100 µM (inactive)	> 100 µM (inactive)	> 100 µM (inactive)	> 100 µM (inactive)	44.2 µM (inactive)	> 100 µM (inactive)	56 µM (inactive)	> 100 µM (inactive)	> 100 µM (inactive)	> 100 µM (inactive)	> 100	–
O=C1CSC(=S)N1c1ccc(F)cc1F	76.6 µM (inactive)	> 100 µM (inactive)	43.8 µM (inactive)	> 100 µM (inactive)	> 100 µM (inactive)	44.6 µM (inactive)	94.8 µM (inactive)	> 100 µM (inactive)	41.3 µM (inactive)	34.8 µM (inactive)	42.2 µM (inactive)	41.3 µM (inactive)	61.9 µM (inactive)	46.5 µM (inactive)	–	89.9 µM (inactive)	70.8 µM (inactive)	59.2 µM (inactive)	36.2	61.2 µM (inactive)
CC(=O)OCCC[C@@H]1C(=C(C)C)CCC2[C@@]1(C)CC[C@@]1(C)C[C@](C)(CCC=C(C)C)CC[C@]21C (some centres undefined)	> 100 µM (inactive)	> 100 µM (inactive)	> 100 µM (inactive)	> 100 µM (inactive)	> 100 µM (inactive)	> 100 µM (inactive)	> 100 µM (inactive)	> 100 µM (inactive)	> 100 µM (inactive)	> 100 µM (inactive)	> 100 µM (inactive)	> 100 µM (inactive)	> 100 µM (inactive)	> 100 µM (inactive)	> 100 µM (inactive)	13.5 µM (inactive)	> 100 µM (inactive)	> 100 µM (inactive)	> 100	–
COc1cc(/C=C2\N=C(c3ccccc3)N(c3nc4c(OC)ccc(OC)c4s3)C2=O)cc(OC)c1OC	> 100 µM (inactive)	> 100 µM (inactive)	55.6 µM (inactive)	–	61.8 µM (inactive)	> 100 µM (inactive)	> 100 µM (inactive)	66.8 µM (inactive)	> 100 µM (inactive)	> 100 µM (inactive)	> 100 µM (inactive)	> 100 µM (inactive)	> 100 µM (inactive)	> 100 µM (inactive)	35.2 µM (inactive)	> 100 µM (inactive)	66.1 µM (inactive)	56.1 µM (inactive)	95.7	> 100 µM (inactive)
CC1(C)CC(=O)C2=C(C1)NC1=C(C2)C(=O)CC(C)(C)C1	> 100 µM (inactive)	> 100 µM (inactive)	> 100 µM (inactive)	> 100 µM (inactive)	> 100 µM (inactive)	> 100 µM (inactive)	> 100 µM (inactive)	> 100 µM (inactive)	> 100 µM (inactive)	> 100 µM (inactive)	> 100 µM (inactive)	> 100 µM (inactive)	> 100 µM (inactive)	> 100 µM (inactive)	> 100 µM (inactive)	> 100 µM (inactive)	> 100 µM (inactive)	> 100 µM (inactive)	> 100	–
C1=NN2C(c3ccccc3)=NOC2C2C(c3ccccc3)=NOC12 (centres undefined)	> 100 µM (inactive)	–	> 100 µM (inactive)	96.2 µM (inactive)	> 100 µM (inactive)	> 100 µM (inactive)	> 100 µM (inactive)	> 100 µM (inactive)	> 100 µM (inactive)	> 100 µM (inactive)	97.9 µM (inactive)	> 100 µM (inactive)	> 100 µM (inactive)	> 100 µM (inactive)	–	> 100 µM (inactive)	> 100 µM (inactive)	–	> 100	–
O=C(CCCCCCCCC(=O)N1C(=O)CC(=O)N(c2cccc(Cl)c2)C1=S)N1C(=O)CC(=O)N(c2cccc(Cl)c2)C1=S	33.7 µM (inactive)	40.2 µM (inactive)	45 µM (inactive)	–	40.3 µM (inactive)	57.4 µM (inactive)	38.3 µM (inactive)	34.2 µM (inactive)	25.2 µM (inactive)	94.4 µM (inactive)	27.2 µM (inactive)	19.3 µM (inactive)	32.5 µM (inactive)	39.7 µM (inactive)	20 µM (inactive)	27.5 µM (inactive)	21.9 µM (inactive)	35.6 µM (inactive)	43.5	37.7 µM (inactive)
O=C1c2ccccc2C(C2c3ccccc3C(=O)c3cc(Br)ccc32)c2ccc(Br)cc21 (centres undefined)	> 100 µM (inactive)	> 100 µM (inactive)	> 100 µM (inactive)	> 100 µM (inactive)	> 100 µM (inactive)	> 100 µM (inactive)	> 100 µM (inactive)	59.2 µM (inactive)	> 100 µM (inactive)	> 100 µM (inactive)	> 100 µM (inactive)	> 100 µM (inactive)	> 100 µM (inactive)	> 100 µM (inactive)	61 µM (inactive)	> 100 µM (inactive)	> 100 µM (inactive)	> 100 µM (inactive)	> 100	–
FC(F)(F)c1cccc(COCCN2CCN(Cc3cccc(C(F)(F)F)c3)CC2)c1	15.6 µM (inactive)	18.5 µM (inactive)	17.4 µM (inactive)	17 µM (inactive)	18.1 µM (inactive)	15.3 µM (inactive)	11.1 µM (inactive)	14.4 µM (inactive)	20 µM (inactive)	17 µM (inactive)	18.6 µM (inactive)	19.5 µM (inactive)	16.2 µM (inactive)	17.9 µM (inactive)	7.91 µM (inactive)	12.3 µM (inactive)	15.3 µM (inactive)	18.1 µM (inactive)	16.2	–
CC(NC1=NCCO1)c1cccs1 (centres undefined)	20.5 µM (inactive)	60.7 µM (inactive)	18.1 µM (inactive)	46.8 µM (inactive)	15.7 µM (inactive)	30.4 µM (inactive)	88.1 µM (inactive)	20 µM (inactive)	–	17.7 µM (inactive)	> 100 µM (inactive)	17.8 µM (inactive)	52.8 µM (inactive)	50.2 µM (inactive)	22.1 µM (inactive)	24.9 µM (inactive)	16.5 µM (inactive)	18.1 µM (inactive)	33.7	–
CN(C)c1n/c(=N/Cc2ccncc2)ss1	> 71.4 µM (inactive)	19.6 µM (inactive)	> 39.7 µM (inactive)	> 100 µM (inactive)	> 10 µM (inactive)	46.2 µM (inactive)	> 71.9 µM (inactive)	20.5 µM (inactive)	> 48.6 µM (inactive)	> 52.6 µM (inactive)	> 72.8 µM (inactive)	23.6 µM (inactive)	> 10 µM (inactive)	17.5 µM (inactive)	20.3 µM (inactive)	> 50 µM (inactive)	30.2 µM (inactive)	17.9 µM (inactive)	45	–
COc1cc2c(cc1OC)CN1CCCc3cc(OC)c(OC)cc3C1C2 (centres undefined)	36.9 µM (inactive)	42.7 µM (inactive)	67.5 µM (inactive)	27.9 µM (inactive)	50 µM (inactive)	61 µM (inactive)	44 µM (inactive)	23.1 µM (inactive)	39.3 µM (inactive)	33.7 µM (inactive)	> 100 µM (inactive)	40.8 µM (inactive)	55 µM (inactive)	52.4 µM (inactive)	88.1 µM (inactive)	43.1 µM (inactive)	29.6 µM (inactive)	36.6 µM (inactive)	41.6	–
Cc1c(C(=O)N2CCN(c3ccc([N+](=O)[O-])cc3)CC2)[n+]([O-])c2cc(Cl)c(Cl)cc2[n+]1[O-]	18.3 µM (inactive)	18.4 µM (inactive)	35.6 µM (inactive)	–	36.8 µM (inactive)	17.3 µM (inactive)	20.6 µM (inactive)	19 µM (inactive)	22.8 µM (inactive)	13.2 µM (inactive)	16.8 µM (inactive)	22.6 µM (inactive)	20.2 µM (inactive)	14.8 µM (inactive)	72.8 µM (inactive)	–	15.8 µM (inactive)	20.9 µM (inactive)	17.1	31.3 µM (inactive)
COc1ccc(-n2nnnc2C2(Nc3ccccc3)CCN(Cc3ccccc3)CC2)cc1	12.3 µM (inactive)	7.29 µM (inactive)	13.8 µM (inactive)	25.2 µM (inactive)	3.77 µM (inactive)	> 10 µM (inactive)	21.6 µM (inactive)	7.8 µM (inactive)	–	3.93 µM (inactive)	7.35 µM (inactive)	4.51 µM (inactive)	14.2 µM (inactive)	21 µM (inactive)	5.04 µM (inactive)	7.48 µM (inactive)	10.5 µM (inactive)	16.4 µM (inactive)	7.21	–
